Results from patent EP0121635A1, “3',5',-Diarabinosides, their preparation and their therapeutical application” (SYNTHELABO, priority 1982, dated 1984).

Columns and labels:
[1] = system: tumeur ascitique d'Ehrlich; assay: Development of Ehrlich ascites tumour in mice (survival); format: in vivo, Souris; settings: for Nombre d'animaux sans tumeur au 28ème jour: day 28, controls 0/12 and 0/5; for Nombre d'animaux sans tumeur au 28ème jour / % d'augmentation de survie (pour les animaux décédés): same regimen; for Durée de survie des souris: souris Swiss, 2 x 10^6 malignant cells i.p., 4 days; for % d'augmentation de survie (pour les animaux décédés): versus controls; for % d'augmentation: increase of survival versus controls
Experimental: Les composés de l'invention ont été soumis à des essais pharmacologiques montrant leur intérêt dans le domaine antitumoral. L'action des composés sur le développement de la tumeur ascitique d'Ehrlich chez la Souris a été observée.
Les essais se font sur des lots de 5 ou 6 souris Swiss de 12 à 15 g. Chaque animal reçoit 2 x 10^6 cellules malignes par voie péritonéale. Le traitement débute 16 h après l'inoculation et consiste en 2 injections par jour de 0,75 ml d'une solution de dinucléotide à 2 mg/ml dans le péritoine c'est-à-dire 3 mg par animal et par jour ou 200 mg/kg. La durée du traitement est de 4 jours.
Les dinucléotides,composés de l'invention, ont été testés de la manière indiquée.

virus Herpès = assay: Herpes virus yield in treated cell cultures (TCID50 titre); format: cell-based; settings: untreated control harvest titre 10^5,625; concentration not given
Description: L'activité des trois composés de l'invention Ara A-p-Ara A, Ara A-p-Ara C et Ara C-p-Ara A a également été démontrée sur le virus Herpès.
La récolte virale témoin (cellules non traitées) a un titre TCI D50 (tissue culture infecting dosis) de 10^5,625.
Les cultures traitées par les composés de l'invention ont les titres suivants • Ara A-p-Ara A TCID50 = 10^3,16 • ^Ara A^-p-Ara C TCID50 ^< 102 • Ara C-p-Ara A TCID50 ≤ 10^2,5

[2] = Tableau 1, dinucleotide 200 mg/kg per day i.p. in 2 injections, start 16 h after inoculation, controls 16,54 j (Ara A, Ara C) and 18 j (Ara A-p-Ara C)
[3] = Tableau 2, dinucleotide 200 mg/kg per day i.p., controls 14,67 j

Structure (SMILES)	Nombre d'animaux sans tumeur au 28ème jour ([1]; Tableau 1)	Durée de survie des souris [1, 2]	% d'augmentation de survie (pour les animaux décédés) ([1]; Tableau 1)	% d'augmentation ([1]; Tableau 2)	Durée de survie des souris [1, 3]	TCID50 (titre of viral harvest of treated cultures) (virus Herpès)
Nc1ccn([C@@H]2O[C@H](CO)[C@@H](O)[C@@H]2O)c(=O)n1 [Ara C, 1-β-D-arabinofuranosyl-cytosine]	0	32 J	94,4%			
Nc1ncnc2c1ncn2[C@@H]1O[C@H](COP(=O)(O)O[C@H]2[C@H](O)[C@H](n3cnc4c(N)ncnc43)O[C@@H]2CO)[C@@H](O)[C@@H]1O [Ara A-p-Ara A]				44,3%	21,17 j	
Nc1ccn([C@@H]2O[C@H](COP(=O)(O)O[C@H]3[C@H](O)[C@H](n4cnc5c(N)ncnc54)O[C@@H]3CO)[C@@H](O)[C@@H]2O)c(=O)n1 [Ara A-p-Ara C]	4/5	> 36 J	> 100%			< 102
Nc1ncnc2c1ncn2[C@@H]1O[C@H](CO)[C@@H](O)[C@@H]1O [Ara A, 9-β-D-arabinofuranosyl-adénine]	0	24,5 j	48,5%	39,75%	20,5 j	
